Measurements published in patent US11723944B2 (priority 2015, dated 2023).

Biological target: BoNT/A holotoxin (Clostridium botulinum, UniProt P0DPI0)
Sequence (P0DPI0 2-448 limits assumed): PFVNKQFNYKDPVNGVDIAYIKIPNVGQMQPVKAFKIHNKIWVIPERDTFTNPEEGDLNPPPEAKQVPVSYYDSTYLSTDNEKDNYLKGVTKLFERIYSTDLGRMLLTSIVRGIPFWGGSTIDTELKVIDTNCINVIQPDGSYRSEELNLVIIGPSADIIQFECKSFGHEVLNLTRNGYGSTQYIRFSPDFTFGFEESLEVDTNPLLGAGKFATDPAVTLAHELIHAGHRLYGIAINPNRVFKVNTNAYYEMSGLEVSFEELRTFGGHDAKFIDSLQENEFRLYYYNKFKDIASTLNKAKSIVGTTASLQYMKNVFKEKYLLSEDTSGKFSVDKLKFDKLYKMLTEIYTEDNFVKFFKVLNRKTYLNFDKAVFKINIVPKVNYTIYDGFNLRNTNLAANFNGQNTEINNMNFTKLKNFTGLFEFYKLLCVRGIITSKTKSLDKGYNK

NH2-Dab(DNP)-R-[Lys(N3)-T-Dab-Pra]-L-Lys(DBCO-STP)-Tz4-G-Aib-L-[Pra-NYRWL-Lys(N3)] [Inh-2-STP]
latest time after exposure with partial rescue: ≤ 3 h
rescue from internalized BoNT (SNAP-25 cleavage): partial rescue
